Drawing on PubChem BioAssay (NCI), this text covers GI50 and TGI for 13 compounds.

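Results reflect a 48-hour exposure of cells in 96-well plates to compound at five concentrations. GI50: concentration for 50% inhibition of growth. Definition used: TGI = concentration required for complete inhibition of growth.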

Some test systems named below: TK-10 renal; UO-31 renal; SF-295 CNS; COLO 205 colon; SK-MEL-2 melanoma; OVCAR-5 ovarian; SR leukemia; ACHN renal; LOX IMVI melanoma; HOP-62 NSCLC.
Common to all, as to experiment: NCI anticancer screen, dose series, 48 h

In the case of `C=CCCCCOc1ccccc1-c1cnc(OCCCCC=C)n1C`, the GI50 in the experiment with TK-10 renal was 3.5 µM; in the experiment with UO-31 renal, 3.09 µM; in the experiment with SF-295 CNS, 4.03 µM; in the experiment with COLO 205 colon, 3.23 µM; in the experiment with SK-MEL-2 melanoma, 2.56 µM; in the experiment with OVCAR-5 ovarian, 5.22 µM. Moreover, the GI50 in the experiment on SR leukemia is 4.3 µM; in the experiment on ACHN renal, 6.8 µM; in the experiment on LOX IMVI melanoma, 4.89 µM; with HOP-62 NSCLC, 5.13 µM. Also, the TGI in the experiment on TK-10 renal was determined as 23 µM; in the experiment with UO-31 renal, 20.7 µM; in the experiment with SF-295 CNS, 20.1 µM; in the experiment on COLO 205 colon, 11.1 µM; in the experiment with SK-MEL-2 melanoma, 5.88 µM; in the experiment with OVCAR-5 ovarian, 23.1 µM. Also, the TGI is 13.7 µM in the experiment on SR leukemia, 38.9 µM with ACHN renal, 17 µM in the experiment on LOX IMVI melanoma and 20.6 µM in the experiment on HOP-62 NSCLC.
In the case of `COc1ccc(NC(=O)/C(Cc2cc(=O)oc3cc(O)ccc23)=N\NC(C)(C)C)c(OC)c1`, the TGI in the experiment on TK-10 renal, with UO-31 renal, with SF-295 CNS, in the experiment on COLO 205 colon, in the experiment on SK-MEL-2 melanoma and in the experiment on OVCAR-5 ovarian was above 100 µM throughout. In addition, the TGI in the experiment on SR leukemia, in the experiment with ACHN renal, in the experiment with LOX IMVI melanoma and with HOP-62 NSCLC was above 100 µM throughout.
Turning to `CCOc1ccc(NC(=O)C(=O)CC(=O)c2c(C)n([O-])c3ccccc3[n+]2=O)cc1`, the TGI in the experiment on TK-10 renal, in the experiment on UO-31 renal, with SF-295 CNS, with COLO 205 colon, in the experiment on SK-MEL-2 melanoma and in the experiment with OVCAR-5 ovarian was above 100 µM throughout. In addition, the TGI in the experiment with SR leukemia, in the experiment with ACHN renal, with LOX IMVI melanoma and in the experiment on HOP-62 NSCLC was above 100 µM throughout.
On to `CCOc1ccc(NC(=O)CC#N)cc1`, for which the TGI in the experiment with TK-10 renal, with UO-31 renal, with SF-295 CNS, in the experiment on COLO 205 colon, with SK-MEL-2 melanoma and in the experiment with OVCAR-5 ovarian was above 100 µM throughout. For the same compound, the TGI with SR leukemia, in the experiment on ACHN renal, in the experiment with LOX IMVI melanoma and in the experiment with HOP-62 NSCLC was above 100 µM each time.
As to `O=C(O)Cc1cc(Cl)ccc1O`, the TGI with TK-10 renal, in the experiment on UO-31 renal, with SF-295 CNS, in the experiment on COLO 205 colon, in the experiment on SK-MEL-2 melanoma and with OVCAR-5 ovarian was above 100 µM throughout. In addition, the TGI with SR leukemia, in the experiment on ACHN renal, with LOX IMVI melanoma and with HOP-62 NSCLC was above 100 µM in each case.
For `COc1cc2c(cc1OCCCNC(=O)c1cccc3c(=O)c4ccccc4[nH]c13)N=C[C@@H]1CCCN1C2=O`, the GI50 with TK-10 renal is below 0.0434 µM; with SF-295 CNS, below 0.0508 µM; with COLO 205 colon it was below 0.01 µM; with SK-MEL-2 melanoma, 2.37 µM; in the experiment with OVCAR-5 ovarian, below 0.01 µM; with ACHN renal, 0.0197 µM. The GI50 in the experiment on LOX IMVI melanoma and in the experiment with HOP-62 NSCLC was below 0.01 µM each time. The TGI in the experiment on TK-10 renal was found to be 2.66 µM; with UO-31 renal it was 16.9 µM; in the experiment on SF-295 CNS it was 4.46 µM; in the experiment on COLO 205 colon, 0.0437 µM; with SK-MEL-2 melanoma it was 4.82 µM; in the experiment on OVCAR-5 ovarian, 30.6 µM. Further, the TGI in the experiment on SR leukemia was above 45.4 µM; in the experiment with ACHN renal it was above 100 µM; with HOP-62 NSCLC it was 0.399 µM.
`N#CC(C(=O)C(=O)C(C#N)c1ccc(Br)cc1)c1ccc(Br)cc1` (configuration not stated): the TGI in the experiment with TK-10 renal is 30.6 µM; in the experiment with UO-31 renal, 29.9 µM; with SF-295 CNS, 26.6 µM; with COLO 205 colon, 31.4 µM; with SK-MEL-2 melanoma, 27.5 µM; in the experiment on OVCAR-5 ovarian, 32.1 µM. Also, the TGI was above 100 µM in the experiment on SR leukemia, 25.1 µM in the experiment with ACHN renal, 23.6 µM with LOX IMVI melanoma and 27.2 µM with HOP-62 NSCLC.
On to `CCOC(=O)C(Cc1ccc(CCCC(=O)NCCC(=O)Nc2ccc3nc(C)sc3c2)cc1)C(=O)OCC`, for which the GI50 with TK-10 renal is above 100 µM; in the experiment on UO-31 renal, 26.9 µM; in the experiment on SF-295 CNS, 49.4 µM; in the experiment on COLO 205 colon, 32.3 µM; in the experiment on SK-MEL-2 melanoma, 33 µM; with OVCAR-5 ovarian, above 100 µM. In addition, the GI50 was 50.8 µM in the experiment on SR leukemia, 18.2 µM in the experiment with ACHN renal, 33.2 µM with LOX IMVI melanoma and above 83.3 µM with HOP-62 NSCLC. The TGI was above 100 µM in the experiment with TK-10 renal; above 76.8 µM in the experiment with UO-31 renal; above 100 µM in the experiment with SF-295 CNS; above 96.4 µM in the experiment on COLO 205 colon; above 62 µM with SK-MEL-2 melanoma; above 100 µM with OVCAR-5 ovarian. The TGI with SR leukemia is above 100 µM; in the experiment with ACHN renal, 34.3 µM; in the experiment with LOX IMVI melanoma, above 100 µM; in the experiment on HOP-62 NSCLC, above 100 µM.
As to `Clc1ccc2[nH]cc(-c3nnnn3-c3ccccc3)c2c1`, the GI50 is 7.29 µM in the experiment with TK-10 renal; 26.9 µM in the experiment on UO-31 renal; 13.3 µM with SF-295 CNS; 23.1 µM in the experiment with COLO 205 colon; above 64.9 µM in the experiment with SK-MEL-2 melanoma; 21.8 µM with OVCAR-5 ovarian. Also, the GI50 in the experiment on SR leukemia was 4.4 µM; with ACHN renal, 24.9 µM; with LOX IMVI melanoma, 10.5 µM; in the experiment on HOP-62 NSCLC, 28 µM. In addition, the TGI in the experiment on TK-10 renal was above 31.6 µM; in the experiment with UO-31 renal, above 100 µM; in the experiment on SF-295 CNS, 52.7 µM; in the experiment with COLO 205 colon, above 57.8 µM; in the experiment on SK-MEL-2 melanoma it was above 100 µM; with OVCAR-5 ovarian, above 89.8 µM. For the same compound, the TGI is above 38.9 µM with SR leukemia, above 100 µM with ACHN renal, above 53.5 µM with LOX IMVI melanoma and above 100 µM in the experiment on HOP-62 NSCLC.
With `CN1CCOC(c2ccccc2)O1` (configuration not stated), the TGI with TK-10 renal, in the experiment on UO-31 renal, with SF-295 CNS, with COLO 205 colon, in the experiment with SK-MEL-2 melanoma and in the experiment with OVCAR-5 ovarian was above 100 µM each time. In addition, the TGI with SR leukemia, in the experiment with ACHN renal, in the experiment with LOX IMVI melanoma and with HOP-62 NSCLC was above 100 µM throughout.
In the case of `Oc1cccnc1[Se]`, the TGI in the experiment on TK-10 renal was above 100 µM; with UO-31 renal, above 100 µM; with SF-295 CNS it was 97.3 µM; with COLO 205 colon it was 35 µM; in the experiment with SK-MEL-2 melanoma, above 100 µM; in the experiment on OVCAR-5 ovarian, above 100 µM. Moreover, the TGI in the experiment on SR leukemia is above 100 µM; with ACHN renal, above 100 µM; in the experiment with LOX IMVI melanoma, above 100 µM; in the experiment with HOP-62 NSCLC it was 64.7 µM.
As for `Cc1ccc(NC(=O)CCc2cc(C(C)(C)C)nc(=S)[nH]2)cc1C`, the TGI in the experiment on TK-10 renal, in the experiment on UO-31 renal, in the experiment on SF-295 CNS, in the experiment with COLO 205 colon, in the experiment with SK-MEL-2 melanoma and in the experiment with OVCAR-5 ovarian was above 100 µM throughout. Besides, the TGI with SR leukemia, in the experiment with ACHN renal, in the experiment on LOX IMVI melanoma and in the experiment with HOP-62 NSCLC was above 100 µM in each case.
As for `COc1ccc(-c2nc3ccc(-c4nc5ccc(N6CCN(c7ccccc7)CC6)cc5[nH]4)cc3[nH]2)cc1OC`, the GI50 with TK-10 renal is 2.2 µM; in the experiment on UO-31 renal, 51.4 µM; in the experiment with SF-295 CNS it was 1.73 µM; in the experiment with COLO 205 colon it was 0.77 µM; in the experiment with SK-MEL-2 melanoma, 2.04 µM; in the experiment with OVCAR-5 ovarian it was 2.21 µM. Besides, the GI50 was 0.341 µM in the experiment on SR leukemia, 2.28 µM in the experiment with ACHN renal, 0.357 µM in the experiment on LOX IMVI melanoma and 2.04 µM with HOP-62 NSCLC. For the same compound, the TGI in the experiment on TK-10 renal is 4.42 µM; in the experiment with UO-31 renal, above 100 µM; in the experiment with SF-295 CNS, 4.02 µM; in the experiment on COLO 205 colon, 2.81 µM; in the experiment with SK-MEL-2 melanoma, 4.07 µM; in the experiment with OVCAR-5 ovarian, 4.48 µM. Further, the TGI turned out to be 2.83 µM in the experiment on SR leukemia, 10.2 µM in the experiment on ACHN renal, 1.34 µM with LOX IMVI melanoma and 6.58 µM in the experiment with HOP-62 NSCLC.
